pIC50: −log10 of the molar value. Read-outs that look alike come from different tables or passages of the source.
Tests used:
[1] = system: NHBE cells; assay: cells; type: cell-based, human; conditions: for pIC50: dose response 4 nM to 10 μM
[2] = system: CA09; assay: microbe, parasite or virus in culture; type: cell-based, influenza virus H1N1 strain A/CA/04/2009; conditions: for log reduction at 10 pM / log reduction at 0.0001 µM / log reduction at 0.001 µM / log reduction at 0.01 µM / log reduction at 0.1 µM / log reduction at 1 µM / log reduction at 10 µM / log reduction at 100 µM: NHBE, read-out: TCID50 (per mL); for Viral Titer Therapeutic: follow up validation titer, therapeutic treatment
[3] = system: NHBE cells; assay: Biolog metabolic array: substrate use by NHBE cells with or without CA09 infection; type: cell-based, human; conditions: for Substrate use, 590 nm absorbance normalized to zero hour, 0 hr: Biolog PMM2, 0 hr; for Substrate use, 590 nm absorbance normalized to zero hour, 1 hr: Biolog PMM2, 1 hr; for Substrate use, 590 nm absorbance normalized to zero hour, 5 hr: Biolog PMM2, 5 hr; for Substrate use, 590 nm absorbance normalized to zero hour, 7 hr: Biolog PMM2, 7 hr
[4] = Control (uninfected) NHBE cells
[5] = Virus (CA09-infected, MOI 1) NHBE cells
[6] = Virus: CA09-infected NHBE cells, MOI 1, Biolog PMM2

Compound: COc1cc(/C=C/C(=O)CC(=O)/C=C/c2ccc(O)c(OC)c2)ccc1O [CURCUMIN]
- pIC50 ([1]; Homo sapiens, NHBE, 72 h, prophylactic schedule, read-out: IC50, Prophylactic Treatment, Control): 9.00

Compound: O=C(CO)[C@@H](O)[C@@H](O)[C@H](O)[C@H](O)CO [D-mannoheptulose]
- log reduction at 10 pM [2]: 0
- log reduction at 0.0001 µM [2]: 0.76
- log reduction at 0.001 µM [2]: 0.56
- log reduction at 0.01 µM [2]: 0
- log reduction at 0.1 µM [2]: 0.25
- log reduction at 1 µM [2]: 0.88
- log reduction at 10 µM [2]: 0.4
- log reduction at 100 µM [2]: -0.03

Compound: CSCC[C@H](NC(=O)[C@H](Cc1ccccc1)NC[C@@H](NC[C@@H](N)CS)C(C)C)C(=O)O [FTASE INHIBITOR I]
- pIC50 ([1]; read-out: IC50, Therapeutic Treatment, Viral Infected): 6.70
- pIC50 ([1]; therapeutic schedule, read-out: IC50, Therapeutic Treatment, Control): 7.05

Compound: CC(C)n1c(/C=C/C(O)CC(O)CC(=O)O)c(-c2ccc(F)cc2)c2ccccc21 (centres unmarked) [Fluvastatin]
- log reduction at 10 pM ([2]; Therapeutic Drug Treatment, Drug Dose 10 pM, […]): 0.16
- log reduction at 0.0001 µM ([2]; Therapeutic Drug Treatment, Drug Dose 100 pM, […]): 0.5
- log reduction at 0.001 µM ([2]; Therapeutic Drug Treatment, Drug Dose 1 nM, […]): 0.18
- log reduction at 0.01 µM ([2]; Therapeutic Drug Treatment, Drug Dose 10 nM, […]): 0.34
- log reduction at 0.1 µM ([2]; Therapeutic Drug Treatment, Drug Dose 100 nM, […]): 0.15
- log reduction at 1 µM ([2]; Therapeutic Drug Treatment, Drug Dose 1 μM, […]): 0.51
- log reduction at 10 µM ([2]; Therapeutic Drug Treatment, Drug Dose 10 μM, […]): 0.75
- log reduction at 100 µM ([2]; Therapeutic Drug Treatment, Drug Dose 100 μM, […]): -0.33

Compound: CS(=O)(=O)N1CCN(Cc2cc3nc(-c4cccc5[nH]ncc45)nc(N4CCOCC4)c3s2)CC1 [GDC-0941]
- Cell Death Prophylactic [1]: C = V
- Cell Death Therapeutic [1]: C = V
- NHBE cell survival / cell death after infection [1]: no effect

Compound: O=C(O)c1nn(Cc2ccc(Cl)cc2Cl)c2ccccc12 [Lonidamine]
- log reduction at 10 pM [2]: 0.94
- log reduction at 0.0001 µM [2]: 0.54
- log reduction at 0.001 µM [2]: 0.54
- log reduction at 0.01 µM [2]: 0.67
- log reduction at 0.1 µM [2]: 0.24
- log reduction at 1 µM [2]: 0.24
- log reduction at 10 µM [2]: 0.18
- log reduction at 100 µM [2]: 0.65

Compound: COc1ccc(Cc2nnc(NS(=O)(=O)c3ccccc3)s2)cc1 [OU749]
- log reduction at 10 pM [2]: 0
- log reduction at 0.0001 µM [2]: 0.65
- log reduction at 0.01 µM [2]: 0.35
- log reduction at 10 µM [2]: 0.46
- Viral Titer Therapeutic [2]: Reduced

Compound: CC(C)c1nc(N(C)S(C)(=O)=O)nc(-c2ccc(F)cc2)c1/C=C/[C@@H](O)C[C@@H](O)CC(=O)O [Rosuvastatin]
- log reduction at 10 pM [2]: 0
- log reduction at 0.0001 µM [2]: 0.15
- log reduction at 0.001 µM [2]: 0.76
- log reduction at 0.01 µM [2]: 0.66
- log reduction at 0.1 µM [2]: 0.41
- log reduction at 1 µM [2]: 1
- log reduction at 10 µM [2]: 0.79
- log reduction at 100 µM [2]: 0.64
- Viral Titer Therapeutic [2]: Reduced

Compound: Mannan
- 590 nm absorbance normalized to zero hour (substrate use), 0 hr [3, 4]: 1.00
- 590 nm absorbance normalized to zero hour (substrate use), 1 hr [3, 4]: 1.03
- 590 nm absorbance normalized to zero hour (substrate use), 2 hr [3, 4]: 0.89
- 590 nm absorbance normalized to zero hour (substrate use), 3 hr [3, 4]: 1.03
- 590 nm absorbance normalized to zero hour (substrate use), 4 hr [3, 4]: 1.06
- 590 nm absorbance normalized to zero hour (substrate use), 6 hr [3, 4]: 1.80
- 590 nm absorbance normalized to zero hour (substrate use), 8 hr [3, 4]: 1.08
- 590 nm absorbance normalized to zero hour (substrate use), 9 hr [3, 4]: 1.09
- 590 nm absorbance normalized to zero hour (substrate use), 10 hr [3, 4]: 1.11
- 590 nm absorbance normalized to zero hour (substrate use), 11 hr [3, 4]: 1.27
- Substrate use, 590 nm absorbance normalized to zero hour, 0 hr [3, 4]: 1.00
- Substrate use, 590 nm absorbance normalized to zero hour, 1 hr [3, 4]: 1.03
- Substrate use, 590 nm absorbance normalized to zero hour, 5 hr [3, 4]: 1.14
- Substrate use, 590 nm absorbance normalized to zero hour, 7 hr [3, 4]: 1.15
- 590 nm absorbance normalized to zero hour (substrate use), 0 hr [3, 5]: 1.00
- 590 nm absorbance normalized to zero hour (substrate use), 1 hr [3, 5]: 1.03
- 590 nm absorbance normalized to zero hour (substrate use), 2 hr [3, 5]: 1.25
- 590 nm absorbance normalized to zero hour (substrate use), 3 hr [3, 5]: 1.28
- 590 nm absorbance normalized to zero hour (substrate use), 5 hr [3, 5]: 1.41
- 590 nm absorbance normalized to zero hour (substrate use), 6 hr [3, 5]: 1.44
- 590 nm absorbance normalized to zero hour (substrate use), 7 hr [3, 5]: 1.49
- 590 nm absorbance normalized to zero hour (substrate use), 8 hr [3, 5]: 1.49
- 590 nm absorbance normalized to zero hour (substrate use), 9 hr [3, 5]: 1.61
- 590 nm absorbance normalized to zero hour (substrate use), 11 hr [3, 5]: 1.76
- 590 nm absorbance normalized to zero hour (substrate use), 0 hr [3, 6]: 1.00
- 590 nm absorbance normalized to zero hour (substrate use), 1 hr [3, 6]: 1.03
- 590 nm absorbance normalized to zero hour (substrate use), 2 hr [3, 6]: 1.25
- 590 nm absorbance normalized to zero hour (substrate use), 3 hr [3, 6]: 1.28
- 590 nm absorbance normalized to zero hour (substrate use), 5 hr [3, 6]: 1.41
- 590 nm absorbance normalized to zero hour (substrate use), 6 hr [3, 6]: 1.44
- 590 nm absorbance normalized to zero hour (substrate use), 7 hr [3, 6]: 1.49
- 590 nm absorbance normalized to zero hour (substrate use), 8 hr [3, 6]: 1.49
- 590 nm absorbance normalized to zero hour (substrate use), 9 hr [3, 6]: 1.61
- 590 nm absorbance normalized to zero hour (substrate use), 11 hr [3, 6]: 1.76

Compound: Pectin
- 590 nm absorbance normalized to zero hour (substrate use), 0 hr [3, 4]: 1.00
- 590 nm absorbance normalized to zero hour (substrate use), 1 hr [3, 4]: 3.40
- 590 nm absorbance normalized to zero hour (substrate use), 2 hr [3, 4]: 1.82
- 590 nm absorbance normalized to zero hour (substrate use), 3 hr [3, 4]: 1.76
- 590 nm absorbance normalized to zero hour (substrate use), 4 hr [3, 4]: 1.72
- 590 nm absorbance normalized to zero hour (substrate use), 6 hr [3, 4]: 2.65
- 590 nm absorbance normalized to zero hour (substrate use), 8 hr [3, 4]: 0.95
- 590 nm absorbance normalized to zero hour (substrate use), 9 hr [3, 4]: 1.44
- 590 nm absorbance normalized to zero hour (substrate use), 10 hr [3, 4]: 1.37
- 590 nm absorbance normalized to zero hour (substrate use), 11 hr [3, 4]: 0.91
- Substrate use, 590 nm absorbance normalized to zero hour, 0 hr [3, 4]: 1.00
- Substrate use, 590 nm absorbance normalized to zero hour, 1 hr [3, 4]: 3.40
- Substrate use, 590 nm absorbance normalized to zero hour, 5 hr [3, 4]: 1.45
- Substrate use, 590 nm absorbance normalized to zero hour, 7 hr [3, 4]: 1.44
- 590 nm absorbance normalized to zero hour (substrate use), 0 hr [3, 5]: 1.00
- 590 nm absorbance normalized to zero hour (substrate use), 1 hr [3, 5]: 3.25
- 590 nm absorbance normalized to zero hour (substrate use), 2 hr [3, 5]: 2.85
- 590 nm absorbance normalized to zero hour (substrate use), 3 hr [3, 5]: 0.75
- 590 nm absorbance normalized to zero hour (substrate use), 4 hr [3, 5]: 0.80
- 590 nm absorbance normalized to zero hour (substrate use), 5 hr [3, 5]: 0.91
- 590 nm absorbance normalized to zero hour (substrate use), 6 hr [3, 5]: 0.95
- 590 nm absorbance normalized to zero hour (substrate use), 7 hr [3, 5]: 1.00
- 590 nm absorbance normalized to zero hour (substrate use), 8 hr [3, 5]: 1.05
- 590 nm absorbance normalized to zero hour (substrate use), 9 hr [3, 5]: 1.15
- 590 nm absorbance normalized to zero hour (substrate use), 10 hr [3, 5]: 1.17
- 590 nm absorbance normalized to zero hour (substrate use), 11 hr [3, 5]: 1.27
- 590 nm absorbance normalized to zero hour (substrate use), 0 hr [3, 6]: 1.00
- 590 nm absorbance normalized to zero hour (substrate use), 1 hr [3, 6]: 3.25
- 590 nm absorbance normalized to zero hour (substrate use), 2 hr [3, 6]: 2.85
- 590 nm absorbance normalized to zero hour (substrate use), 3 hr [3, 6]: 0.75
- 590 nm absorbance normalized to zero hour (substrate use), 4 hr [3, 6]: 0.80
- 590 nm absorbance normalized to zero hour (substrate use), 5 hr [3, 6]: 0.91
- 590 nm absorbance normalized to zero hour (substrate use), 6 hr [3, 6]: 0.95
- 590 nm absorbance normalized to zero hour (substrate use), 7 hr [3, 6]: 1.00
- 590 nm absorbance normalized to zero hour (substrate use), 8 hr [3, 6]: 1.05
- 590 nm absorbance normalized to zero hour (substrate use), 9 hr [3, 6]: 1.15
- 590 nm absorbance normalized to zero hour (substrate use), 10 hr [3, 6]: 1.17
- 590 nm absorbance normalized to zero hour (substrate use), 11 hr [3, 6]: 1.27

From patent US11083725B2 (priority 2014, dated 2021)
